What all share (assay type): cell-based
Data set [1] in a line: Cytotoxicity in PHH natural infection assay (Cell Counting Kit-8). Conditions: HBV-infected primary human hepatocytes, CCK8. The method, then:
(§1) Detailed procedures regarding primary human hepatocyte (PHH) HBV natural infection assay are described as below. One tube of frozen PHH (10 million cells) is thawed in 37° C. water bath and then transferred to 20 mL of PHH thawing medium (Sigma, InVitroGRO HT Medium, Cat. S03319) with gently mixing. The cells were then centrifuged at […] for 5 min, the supernatant was discarded and the tube was refilled with 25 mL of PHH plating medium (Sigma, InVitroGRO CP Medium, Cat. 503317). The tube was shaken very gently to re-suspend all cells. 50 μl of cells were transferred to each well 384-well collagen I coated plate with appropriate liquid handling equipment, e.g. Integra VIAFLO384 or Agilent Bravo. The cells were then cultured for 24 hours in a cell incubator. For HBV infection, after PHH attachment on the culture plate, the plating medium was removed and replenished with PHH culture medium containing HBV virus. The PHH culture medium was prepared with Dulbecco's Modified Eagle Medium (DMEM)/F12 (1:1 in volume ratio) containing 10% fetal bovine serum (Gibco, Cat. 10099141), […] (Gibco, Cat. PHG03I1L), 20 ng/mL dexamethasone (Sigma, Cat. D4902-100 mg), 250 ng/mL human recombinant insulin (Gibco, Cat. 41400045) and 100 U/mL penicillin. HBV virus at 200 genome equivalent (GE) per cell with 4% PEG8000 (Sigma, Cat. P1458) containing culture medium were added to the PHH culture medium for infection. The cells were then cultured for 24 hours in cell incubator. Then the cell culture supernatant was removed. The HBV-infected PHH were cultured with sandwich culture method with PHH culture medium containing 1% DMSO and 0.25 mg/mL matrix gel for 72 hours. The supernatant was then refreshed with PHH culture medium containing different concentrations of testing compounds for two times with 72-hour interval. At the end of treatment, the supernatant was collected for viral markers measurements, including HBsAg, HBeAg, HBV DNA and cytotoxicity. HBsAg and HBeAg were detected using alphalisa method using their specific antibodies. For HBV DNA detection, HBV DNA Quantitative Fluorescence Diagnostic Kit (Sansure Biotech Inc.) was used following the manufacture's protocol. Cytotoxicity was determined using Cell Counting Kit-8 (CCK8, Dojindo Molecular Technologies, Inc.).
Background: Tetrazolium assays rely on reduction of a dye to a coloured formazan, in cell work by metabolically active cells.

Another data set deals with HBsAg. The experiment in a line: PHH HBV natural infection assay, HBsAg (alphalisa). As to conditions: Hepatitis B virus, Hepatocyte, 72 h, read-out: HBsAg IC50. How it is done: as §1
(§2) The compounds of the present invention were tested for their capacity to inhibit HBsAg and HBeAg as described herein.
In general terms: Alpha assays give light when donor and acceptor beads are brought close together.

Another data set deals with HBeAg. The experiment in a line: PHH HBV natural infection assay, HBeAg (alphalisa). As to conditions: Hepatitis B virus, Hepatocyte, 72 h, read-out: HbeAg IC50. The method, then: as §1, §2

SMILES strings stand for the structures. pIC50: −log10 of the molar value.

As a reminder, the CC50 is the concentration giving 50% cytotoxicity. A higher CC50 goes with lower toxicity to the cells. Broadly, the pIC50 is the IC50 on a negative log10 scale, so that one unit is a factor of ten. In turn, `CS(=N)(=O)c1cccc(C(=O)NC23CC(c4nc5cc(Cl)ccc5o4)(C2)C3)c1` (stereo not drawn) [Example 29, N-[3-(5-chloro-1,3-benzoxazol-2-yl)-1-bicyclo[1.1.1]pentanyl]-3-(methylsulfonimidoyl)benzamide] yielded a CC50 at 144 h in data set [1] of more than 100 µM. The pIC50 in the data set on HBsAg was 5.41; in the data set on HBeAg, 5.51.
In the same order, the values of `CCCC(=O)NS(=O)(=O)c1ccc(C(=O)NC23CC(c4nc5cc(Cl)ccc5o4)(C2)C3)o1` [Example 31, 5-(butanoylsulfamoyl)-N-[3-(5-chloro-1,3-benzoxazol-2-yl)-1-bicyclo[1.1.1]pentanyl]furan-2-carboxamide] are more than 100 µM, 5.44 and 5.32.
The matching figures for `O=C(NC12CC(c3nc4cc(Cl)ccc4o3)(C1)C2)c1ccc(Br)o1` [Example 8, 5-bromo-N-[3-(5-chloro-1,3-benzoxazol-2-yl)-1-bicyclo[1.1.1]pentanyl]furan-2-carboxamide]: more than 100 µM, 5.04 and 4.83.
The matching figures for `CS(=O)(=O)c1ccc(C(=O)NC23CC(c4nc5ccc(Cl)cc5o4)(C2)C3)o1` [Example 32, N-[3-(6-chloro-1,3-benzoxazol-2-yl)-1-bicyclo[1.1.1]pentanyl]-5-methylsulfonyl-furan-2-carboxamide]: more than 100 µM, 5.25 and 5.46.
For the compound `CS(=N)(=O)c1ccc(C(=O)NC23CC(c4nc5cc(Cl)ccc5o4)(C2)C3)o1` (stereo not drawn) [Example 12, N-[3-(5-chloro-1,3-benzoxazol-2-yl)-1-bicyclo[1.1.1]pentanyl]-5-(methylsulfonimidoyl)furan-2-carboxamide], the CC50 at 144 h in data set [1] was more than 100 µM. Also, the pIC50 in the data set on HBsAg was 5.82; with HBeAg, 6.05.
Regarding `O=C(NC12CCC(c3nc4cc(Cl)ccc4o3)(CC1)CC2)C1CCCS(=O)(=O)C1` (stereo not drawn) [Example 52, N-[4-(5-chloro-1,3-benzoxazol-2-yl)-1-bicyclo[2.2.2]octanyl]-1,1-dioxo-thiane-3-carboxamide], the half-maximal cytotoxic concentration (CC50) at 144 h in data set [1] was more than 100 µM. Besides, the values for the pIC50 in the data set with HBsAg and in the data set on HBeAg were 5.56 and 5.98, respectively.
For `O=C(NC12CC(c3nc4ccc(Cl)cc4o3)(C1)C2)c1ccnc(C(F)(F)F)c1` [Example 37, N-[3-(6-chloro-1,3-benzoxazol-2-yl)-1-bicyclo[1.1.1]pentanyl]-2-(trifluoromethyl)pyridine-4-carboxamide], in data set [1], the CC50 at 144 h is more than 100 µM. Also, the negative-log IC50 (pIC50) with HBsAg is 5.38; in the data set with HBeAg, 5.44.
The matching figures for `O=C(NC12CC(c3nc4cc(Cl)ccc4o3)(C1)C2)c1ccc(C(F)(F)F)nn1` [Example 27, N-[3-(5-chloro-1,3-benzoxazol-2-yl)-1-bicyclo[1.1.1]pentanyl]-6-(trifluoromethyl)pyridazine-3-carboxamide]: more than 100 µM, 5.41 and 5.95.
Take `CS(=O)(=O)Cc1ccc(C(=O)NC23CC(c4nc5cc(Cl)ccc5o4)(C2)C3)o1` [Example 16, N-[3-(5-chloro-1,3-benzoxazol-2-yl)-1-bicyclo[1.1.1]pentanyl]-5-(methylsulfonylmethyl)furan-2-carboxamide]: in data set [1], the CC50 at 144 h was more than 100 µM. In addition, the pIC50 with HBsAg was 6.18; with HBeAg it was 6.24.
In the same order, the values of `O=C(NC12CC(c3nc4cc(Cl)ccc4o3)(C1)C2)c1cccc(Br)c1` [Example 19, 3-bromo-N-[3-(5-chloro-1,3-benzoxazol-2-yl)-1-bicyclo[1.1.1]pentanyl]benzamide] are more than 100 µM, 5.58 and 5.49.
In the same order, the values of `O=C(NC12CC(c3nc4cc(Cl)ccc4o3)(C1)C2)c1ccnc(C(F)(F)F)c1` [Example 23, N-[3-(5-chloro-1,3-benzoxazol-2-yl)-1-bicyclo[1.1.1]pentanyl]-2-(trifluoromethyl)pyridine-4-carboxamide] are 96.9 µM, 5.69 and 5.77.

Source of the values: patent US20230286929A1, “AROMATIC BRIDGED RING AMIDE DERIVATIVES FOR THE TREATMENT AND PROPHYLAXIS OF HEPATITIS B VIRUS INFECTION” (Hoffmann-La Roche Inc., priority 2020, published 2023).
